Among the data in patent US7608716B2, “Pyrazolonaphthyridine derivative” (Aska Pharmaceutical Co., Ltd., priority 2002, dated 2009) are melting point values, retold here.

What is called melting point is the temperature, or range, at which the solid turns liquid.

SMILES strings stand for the structures.

As to `COc1ccc(Cc2n[nH]c3c2c(=O)n(-c2ccccc2)c2ncccc32)c(OC)c1` (hydrate or solvate) [Example No. 30, 3-(2,4-dimethoxybenzyl)-5-phenyl-1H-pyrazolo[4,3-c][1,8]naphthyridin-4 (5H)-one], the melting point lay in the range of 266 to 267 °C.

`O=c1c2c(Cc3cccc([N+](=O)[O-])c3)n[nH]c2c2cccnc2n1-c1ccccc1` (hydrate or solvate) [Example 25, 3-(3-nitrobenzyl)-5-phenyl-1H-pyrazolo[4,3-c][1,8]naphthyridin-4 (5H)-one] showed a melting point of more than 320 °C. Compound `CCOC(=O)Cc1ccc(Cc2n[nH]c3c2c(=O)n(-c2ccccc2)c2ncccc32)cc1` (hydrate or solvate) [Example No. 32, 3-(4-ethoxycarbonylmethylbenzyl)-5-phenyl-1H-pyrazolo[4,3-c][1,8]naphthyridin-4 (5H)-one] gave a melting point of 263 to 264 °C.

As to `O=c1c2c(CCc3ccncc3)n[nH]c2c2cccnc2n1-c1ccccc1` [Example 1, 5-phenyl-3-[2-(pyridin-4-yl)ethyl]-1H-pyrazolo[4,3-c][1,8]-naphthyridin-4 (5H)-one], the melting point lay in the range of 267 to 269 °C. As for `N#Cc1cccc(CCc2n[nH]c3c2c(=O)n(-c2ccccc2)c2ncccc32)c1` (hydrate or solvate) [Example 18, 3-[2-(3-cyanophenyl)ethyl]-5-phenyl-1H-pyrazolo[4,3-c][1,8]naphthyridin-4 (5H)-one], the melting point was 219.5 to 224.5 °C. The value for `COc1ccc(OC)c(Cc2n[nH]c3c2c(=O)n(-c2ccccc2)c2ncccc32)c1` (hydrate or solvate) [Example No. 27, 3-(2,5-dimethoxybenzyl)-5-phenyl-1H-pyrazolo[4,3-c][1,8]naphthyridin-4 (5H)-one] was 248 to 250 °C; that for `O=c1c2c(Cc3cccs3)n[nH]c2c2cccnc2n1-c1ccccc1` (hydrate or solvate) [Example No. 23, 3-(2-thienylmethyl)-5-phenyl-1H-pyrazolo[4,3-c][1,8]naphthyridin-4 (5H)-one] was 282 to 284 °C. Consider `N#Cc1ccccc1CCc1n[nH]c2c1c(=O)n(-c1ccccc1)c1ncccc21` (hydrate or solvate) [Example 17, 3-[2-(2-cyanophenyl)ethyl]-5-phenyl-1H-pyrazolo[4,3-c][1,8]naphthyridin-4 (5H)-one], for which the melting point lay in the range of 315.5 to 316.5 °C. For the compound `O=C(O)c1cccc(CCc2n[nH]c3c2c(=O)n(-c2ccccc2)c2ncccc32)c1` [Example 38, 3-[2-(3-carboxyphenyl)ethyl]-5-phenyl-1H-pyrazolo[4,3-c][1,8]naphthyridin-4 (5H)-one], the melting point was in the range of 159 to 161 °C. Turning to `N#Cc1ccc(Cc2n[nH]c3c2c(=O)n(-c2ccccc2)c2ncccc32)cc1` (hydrate or solvate) [Example 31, 3-(4-cyanobenzyl)-5-phenyl-1H-pyrazolo[4,3-c][1,8]naphthyridin-4 (5H)-one], the melting point was 316 to 318 °C (dec.). For `COc1cc(Cc2n[nH]c3c2c(=O)n(-c2ccccc2)c2ncccc32)cc(OC)c1` (hydrate or solvate) [Example 29, 3-(3,5-dimethoxybenzyl)-5-phenyl-1H-pyrazolo[4,3-c][1,8]naphthyridin-4 (5H)-one] the value was 258 to 259 °C; for `O=C(O)c1ccc(CCc2n[nH]c3c2c(=O)n(-c2ccccc2)c2ncccc32)cc1` (hydrate or solvate) [Example No. 14, 3-[2-(4-carboxyphenyl)ethyl]-5-phenyl-1H-pyrazolo[4,3-c][1,8]naphthyridin-4 (5H)-one], 318 to 320 °C. In the case of `O=c1c2c(CCc3cccnc3)n[nH]c2c2cccnc2n1-c1ccccc1` [Example 3, 5-phenyl-3-[2-(pyridin-3-yl)ethyl]-1H-pyrazolo[4,3-c][1,8]-naphthyridin-4 (5H)-one], the melting point was 322 °C (dec.). The value for `COc1cccc(Cc2n[nH]c3c2c(=O)n(-c2ccccc2)c2ncccc32)c1` (hydrate or solvate) [Example 20, 3-(3-methoxybenzyl)-5-phenyl-1H-pyrazolo[4,3-c][1,8]naphthyridin-4 (5H)-one] was 234 to 236 °C; that for `COc1ccc(Cc2n[nH]c3c2c(=O)n(-c2ccccc2)c2ncccc32)cc1` (hydrate or solvate) [Example No. 21, 3-(4-methoxybenzyl)-5-phenyl-1H-pyrazolo[4,3-c][1,8]naphthyridin-4 (5H)-one] was 300 to 302 °C. Compound `Nc1cccc(-n2c(=O)c3c(CCc4ccncc4)n[nH]c3c3cccnc32)c1` [Example 8, 5-(3-aminophenyl)-3-[2-(pyridin-4-yl)ethyl]-1H-pyrazolo[4,3-c][1,8]naphthyridin-4 (5H)-one] yielded a melting point of 261 to 263 °C. `O=c1c2c(CCc3ccccc3[N+](=O)[O-])n[nH]c2c2cccnc2n1-c1ccccc1` (hydrate or solvate) [Example 16, 3-[2-(2-nitrophenyl)ethyl]-5-phenyl-1H-pyrazolo[4,3-c][1,8]naphthyridin-4 (5H)-one] gave a melting point of 333 to 335 °C. For the compound `Nc1ccc(CCc2n[nH]c3c2c(=O)n(-c2ccccc2)c2ncccc32)cc1` (hydrate or solvate) [Example No. 13, 3-[2-(4-aminophenyl)ethyl]-5-phenyl-1H-pyrazolo[4,3-c][1,8]naphthyridin-4 (5H)-one], the melting point is more than 310 °C. With `CS(=O)(=O)Nc1ccc(CCc2n[nH]c3c2c(=O)n(-c2ccccc2)c2ncccc32)cc1` [Example 48, 3-[2-(4-methanesulfonylaminophenyl)ethyl]-5-phenyl-1H-pyrazolo[4,3-c][1,8]naphthyridin-4 (5H)-one], the melting point was 284 to 285 °C. Regarding `COc1ccc(Cc2n[nH]c3c2c(=O)n(-c2ccccc2)c2ncccc32)cc1OC` (hydrate or solvate) [Example 28, 3-(3,4-dimethoxybenzyl)-5-phenyl-1H-pyrazolo[4,3-c][1,8]naphthyridin-4 (5H)-one], the melting point fell in the range of 230 to 232 °C.

`O=c1c2c(Cc3ccccc3O)n[nH]c2c2cccnc2n1-c1ccccc1` [Example 42, 3-(2-hydroxybenzyl)-5-phenyl-1H-pyrazolo[4,3-c][1,8]-naphthyridin-4 (5H)-one] displayed a melting point of 278 to 280 °C. Turning to `O=c1c2c(CCc3ccc([N+](=O)[O-])cc3)n[nH]c2c2cccnc2n1-c1ccccc1` (hydrate or solvate) [Example 11, 3-[2-(4-nitrophenyl)ethyl]-5-phenyl-1H-pyrazolo[4,3-c][1,8]naphthyridin-4 (5H)-one], the melting point was 260 to 262 °C. Regarding `O=c1c2c(CCc3cccc([N+](=O)[O-])c3)n[nH]c2c2cccnc2n1-c1ccccc1` (hydrate or solvate) [Example 15, 3-[2-(3-nitrophenyl)ethyl]-5-phenyl-1H-pyrazolo[4,3-c][1,8]naphthyridin-4 (5H)-one], the melting point fell in the range of 245 to 247 °C. The compound `CS(=O)(=O)c1ccc(Cc2n[nH]c3c2c(=O)n(-c2ccccc2)c2ncccc32)cc1` (hydrate or solvate) [Example 34, 3-(4-methylsulfonylbenzyl)-5-phenyl-1H-pyrazolo[4,3-c][1,8]naphthyridin-4 (5H)-one] displayed a melting point of 311.5 to 312.5 °C.
